This note sets out measurements from ChEMBL document CHEMBL5375943, “The Importance of Tracking "Missing" Metabolites: How and Why?” (J Med Chem, 2023).

A short description of data set [1]: Oral bioavailability in ICR mouse plasma at 5 mg/kg by LC-MS/MS analysis. The data set is classed as ADME, organism-based.
A short description of data set [2]: AUC (0 to t) in Sprague-Dawley rat at 10 mg/kg, po. The data set is classed as ADME, organism-based. More on the design: dose 10 mg/kg, route po. The settings on record: in vivo.
A short description of data set [3]: Elimination half life in human liver microsomes. The data set is classed as ADME, Microsome. The conditions noted are these: read-out: beta t1/2 (converted). In general terms: Microsomes from liver hold many membrane-bound enzymes, among them those of drug oxidation.
A short description of data set [4]: Metabolic stability in human plasma assessed as half life.
Data set [5] can be described thus: Elimination half life in human. The data set is classed as ADME. The settings on record: read-out: beta t1/2.
The next data set deals with Cytochrome P450 3A4 (Homo sapiens, UniProt P08684). The experiment in a line: Inhibition of CYP3A4 in human liver microsome. The data set is classed as ADME, microsomes.
Cytochrome P450 3A4, sequence (P08684 whole entry): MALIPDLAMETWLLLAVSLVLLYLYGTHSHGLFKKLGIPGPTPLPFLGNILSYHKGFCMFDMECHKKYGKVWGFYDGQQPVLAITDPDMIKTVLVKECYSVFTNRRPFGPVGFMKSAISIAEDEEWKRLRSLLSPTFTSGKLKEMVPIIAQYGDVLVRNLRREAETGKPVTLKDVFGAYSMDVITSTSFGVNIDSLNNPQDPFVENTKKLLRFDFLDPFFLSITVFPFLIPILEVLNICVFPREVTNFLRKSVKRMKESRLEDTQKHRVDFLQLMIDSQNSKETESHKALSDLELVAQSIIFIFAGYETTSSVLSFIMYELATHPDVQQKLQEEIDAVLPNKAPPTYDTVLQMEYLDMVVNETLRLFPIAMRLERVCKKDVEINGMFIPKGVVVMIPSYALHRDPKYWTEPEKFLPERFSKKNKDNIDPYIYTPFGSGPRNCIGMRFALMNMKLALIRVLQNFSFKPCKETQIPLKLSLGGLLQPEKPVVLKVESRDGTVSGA
The nature of data set [6]: Clearance in Wistar rat at 3 mg/kg, iv incubated for 24 hrs by LC-MS/MS analysis. The data set is classed as ADME, organism-based. The settings on record: in vivo.
A short description of data set [7]: Stability in human plasma assessed as compound remaining incubated for 10 mins relative to control. The data set is classed as ADME, cell-free. The settings on record: read-out: Stability.

A word on the bioavailability: it is dose-corrected exposure relative to a reference, in per cent. Read a high bioavailability as good availability. By AUC(0-t) is commonly meant the area under the concentration-time curve up to a stated or last time point. Low readings indicate low exposure, high ones high exposure. In data set [1], `CCc1cc(/C(C)=N/OCc2ccc(C3CCCCC3)c(C(F)(F)F)c2)ccc1CN1CC(C(=O)O[C@H]2CC[C@@]3(C)C(=CC[C@H]4[C@@H]5CC[C@H]([C@H](C)CCCC(C)C)[C@@]5(C)CC[C@@H]43)C2)C1` had a bioavailability of 14.7%. In addition, the AUC(0-t) in data set [2] came to 0.19 µM·h. The half-life in data set [3] was 155 h.
For `COc1ccc2[nH]c([S+]([O-])Cc3ncc(C)c(OC)c3C)nc2c1` (stereo unspecified) [OMEPRAZOLE], the half-life in data set [4] is 1 h.
On to `COc1ccc(Cl)cc1[C@]1(F)C(=O)Nc2cc(C(F)(F)F)ccc21` [FLINDOKALNER], for which the half-life in data set [5] is more than 168 h.
A word on the IC50: it is the concentration at which inhibition is half-maximal. High values mean a need for much substance, low ones inhibition by little substance. In turn, `OC1CC(O)(CN2CCC(COc3noc4cccc(O[C@H]5CCOC5)c34)CC2)CCO1` (stereo partly specified) gave an IC50 against Cytochrome P450 3A4 of 600 nM.
In the case of `C[C@H](c1nc2ncccc2c(=O)n1-c1ccc(O)cc1)N(Cc1cccnc1)C(=O)Cc1ccc(OC(F)(F)F)cc1`, the midpoint of inhibition at Cytochrome P450 3A4, the IC50, lay at 550 nM.
What is called clearance is the volume of plasma or blood freed of the substance per unit of time. Higher therefore signals efficient removal. For `C[C@H](O)[C@H]1CC[C@H]2[C@@H]3CC[C@H]4CC(C(=O)O)=CC[C@]4(C)[C@H]3CC[C@]12C`, the clearance in data set [6] worked out at 0.4 mL/min/kg.
The compound `C[C@H](OS(=O)(=O)O)[C@H]1CC[C@H]2[C@@H]3CC[C@H]4CC(C(=O)O)=CC[C@]4(C)[C@H]3CC[C@]12C` had a bioavailability in data set [1] of 20.4%. In addition, the half-life in data set [3] is 171 h.
For `NCCOP(=O)(O)OC[C@@H](O)CNC(=O)c1ccncc1Nc1ccc(I)cc1F`, the remaining at 10 min in data set [7] was 30%.
